Measurements as given in patent publication US20100160443A1, “COMPOUNDS USEFUL FOR TREATING NEUROLOGICAL DISORDERS” (Yissum Research Development Company of The Hebrew …, priority 2003, published 2010).
Entries after “also recorded” stand apart in the source; their conditions may differ.

Tested on: tactile allodynia in rats with SNL neuropathy
Assay: Tactile allodynia (von Frey filaments) in the spinal nerve ligation (SNL) model of neuropathic pain
Assay type: in vivo, rat
Description: The effect on neuropathic pain (tactile allodynia) was measured 5-6 days following operation as disclosed above. Rats responding to mechanical stimuli of 10 g or less (in the operated leg) were eligible for the study and were included in the drug administration regime.
Briefly, under ketamine-xylazine anesthesia the rat was placed in a prone position and the left paraspinal muscles were separated from spinous processes at the L4-S2 level. Part of the L6 transverse process was removed and the L4-L6 spinal nerves were identified. The L5-L6 spinal nerves were isolated and tightly ligated and cut, distal to the dorsal root ganglion and proximal to the formation of the sciatic nerve. Following complete homeostasis the wound was sutured.
A volume of 4 ml/kg (volume of injected suspension/rat body weight) was then injected to the rats. […] The three drugs and the control vehicle were administered i.p. (intraperitoneally) to rats at postoperative days 7, 14 and 21 in a double blind randomized crossover manner.
The rat was placed on a metal mesh floor covered with a transparent plastic dome, a period of acclimatization was allowed prior to testing. VFFs were applied from underneath the mesh floor to the plantar surface of the foot. Each trial consisted of repeated applications of each of the VFFs in an ascending order for 5 times, each for a period of 1 second. testing between two consecutive ascending VFFs was separated by period of 2 min. If the rat withdrew the foot at least 3 times out of 5 at a specific VFF no further ascending filaments were tested and this filament was considered as a withdrawal threshold (response). Mechanical stimulus trials with the series of ascending VFF were repeated 2 times for a given time point. The repeated measurements were averaged and taken as the paw withdrawal threshold on a given time point.
The absolute threshold and the difference in the allodynic threshold (time point minus baseline) values were tested using Mann-Whitney Test and Kruskal-Wallis Nonparametric test (two tailed) followed by Dunn's Multiple comparison test. The ED50 (median effective dose) was calculated by using Probit analysis method.
Briefly, under ketamine-xylazine anesthesia (85 mg kg^−1, i.p and 13 mg kg^−1, i.p, respectively) rats were placed in a prone position and paraspinal muscles on the left were separated from the L4-S2 spinous processes. Part of the L6 transverse process was removed and the underlying L4-L6 spinal nerves were identified. The L5 and L6 spinal nerves were isolated, tightly ligated with 5-0 silk, and cut just distal to the ligature. The ligature was approximately 8 mm distal to the corresponding dorsal root ganglion (DRG). Following complete homeostasis the wound was sutured in layers, the skin closed with Michel clips, topical bacteriostatic power was applied, and 20000 units of duplo-penicillin was injected intramuscularly (i.m.).
We used a set of 9 nylon von Frey monofilaments (VFF, Semmes-Weinstein monofilaments, Stoelting, Wood Dale, Ill., USA) to quantify foot withdrawal in response to normally innocuous tactile stimuli. […] Forces were calibrated by lowering filaments onto the pan of an electronic balance until they just bent.
Rats were placed on a raised wire mesh screen (gaps 4 mm×4 mm), which allowed access to the plantar surface of the hindpaw from below. They were covered with a transparent plastic dome, 13 cm high, which prevented rearing on the hindlimbs. A period of 20 min was allowed for acclimation prior to sensory testing. The mid-plantar hindpaw skin just caudal to the footpads, half way between medial and lateral edges of the foot, was subjected to a series of 5 brief probes, spaced at about 1 s. Each such stimulus was sufficient to just bend the filament. Testing began with the filament with the weakest initial bending force (0.6 g). […] Response threshold was the bending force of the first monofilament in the series that evoked a criterion ≧⅗ responses.

`CC(C)C(C(N)=O)C(C)C` [DID, diisopropylacetamide] was tested, and the “antiallodynic effect / effectiveness for treating neuropathic pain” value (rat, in vivo) was “effective for treating neuropathic pain”, the “ED50 (tactile allodynia)” value (rat, in vivo, ip) was 58 mg/kg and the SNL-ED50 (rat, in vivo, ip) was 58 mg/kg. The “dose dependence of the antiallodynic effect” value (rat, in vivo, ip) was “dose-related antiallodynic activity”, the “lowest effective dose (significant increase of the allodynic threshold vs vehicle)” value (rat, in vivo, ip) was 20 mg/kg and the “rats with no response to 15 g or above VFF at the highest dose tested” value (rat, in vivo, ip) was 63%. For the same molecule, the “time of maximal effect after administration” value (rat, in vivo, ip) was 120 min.
`CCCC(CCC)C(=O)O` [VPA, Valproic acid, reference compound] was tested, and the “rats relieved from tactile allodynia at the highest dose tested” value (VPA 400 mg kg^−1 i.p.) was 88%, the “dose dependence of the antiallodynic effect” value (i.p., rat) was “in a dose dependent manner; also recorded: in a dose-dependent manner” and the “lowest effective dose (significant increase of the allodynic threshold vs vehicle)” value (i.p., rat) was 300 mg/kg. For the same molecule, the “time of maximal effect after administration” value (i.p., rat) was 60 min, the “ED50 (tactile allodynia)” value (i.p., rat, 60 min after dosing) was 269 mg/kg and the SNL-ED50 (i.p., rat, 60 min post injection, DID at 120 min) was 269 mg/kg. It also gave an ED50 (ip, 1 h, i.p., rat, 60 min after administration, protected = threshold of at least 15 g, read-out: ED50 (tactile allodynia threshold)) of 269 mg/kg.
